Experimental findings from paper PMC7044196, “B38-CAP is a bacteria-derived ACE2-like enzyme that suppresses hypertension and cardiac dysfunction” (Nature Communications, 2020) are described below.

For one test, the system named is T1, B38-CAP.
T1 construct: no tag mentioned
The test can be described thus: fluorogenic peptide hydrolysis assay. The test is classed as biochemical, Paenibacillus sp. B38. As to conditions: pH 7.5 HEPES, 0.3 M NaCl, 0.01% Triton X-100, 37 °C, 30 min; fluorogenic ACE2 substrate. An excerpt: fluorogenic peptide hydrolysis assay on B38-CAP

Test [1] addresses T2, recombinant human ACE2 (rhACE2) (Homo sapiens, UniProt Q9BYF1).
T2 construct: recombinant human ACE2 from Calbiochem for the constants
The test can be described thus: fluorogenic peptide hydrolysis assay. The test is classed as biochemical. From the text: fluorogenic peptide hydrolysis assay on recombinant human ACE2 (rhACE2)

T2 sequence (Q9BYF1 18-740 limits assumed): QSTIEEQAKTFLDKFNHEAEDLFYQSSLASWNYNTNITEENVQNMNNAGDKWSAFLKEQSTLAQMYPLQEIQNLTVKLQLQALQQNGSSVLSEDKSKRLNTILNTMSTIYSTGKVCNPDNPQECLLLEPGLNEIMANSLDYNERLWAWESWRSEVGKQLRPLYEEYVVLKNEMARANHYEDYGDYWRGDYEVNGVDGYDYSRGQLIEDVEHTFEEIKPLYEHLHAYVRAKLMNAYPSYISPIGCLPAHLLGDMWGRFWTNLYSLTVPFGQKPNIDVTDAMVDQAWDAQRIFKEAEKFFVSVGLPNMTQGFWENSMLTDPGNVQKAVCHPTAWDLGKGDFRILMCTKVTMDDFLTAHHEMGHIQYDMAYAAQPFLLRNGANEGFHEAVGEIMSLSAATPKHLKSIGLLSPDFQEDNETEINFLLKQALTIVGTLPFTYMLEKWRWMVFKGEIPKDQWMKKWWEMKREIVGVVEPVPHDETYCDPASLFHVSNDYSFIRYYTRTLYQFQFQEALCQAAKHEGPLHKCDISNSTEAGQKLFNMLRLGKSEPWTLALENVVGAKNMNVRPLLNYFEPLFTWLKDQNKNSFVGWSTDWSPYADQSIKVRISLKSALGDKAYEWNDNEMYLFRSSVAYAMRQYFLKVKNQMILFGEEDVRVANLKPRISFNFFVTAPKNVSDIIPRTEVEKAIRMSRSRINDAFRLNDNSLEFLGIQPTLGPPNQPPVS

For the compound `CC(C)C[C@H](N[C@@H](Cc1cncn1Cc1cc(Cl)cc(Cl)c1)C(=O)O)C(=O)O` [MLN-4760], the figures for the IC50 (in the test on B38-CAP; in test [1]) were 710 ± 173 pM and 340 ± 50.1 pM, respectively.
